Test results taken from ChEMBL document CHEMBL4311969, “Polygala tenuifolia-Acori tatarinowii herbal pair as an inspiration for substituted cinnamic α-asaronol esters: Design, synthesis, anticonvulsant activity, and inhibition of lactate dehydrogenase study” (Eur J Med Chem, 2019).
Where “and” joins values, the source holds several entries; their conditions need not be identical. Equal values may be shown once. Calls of active or inactive are those of the source. The calls are words filed in the database; no cut-off is given here.

Experiments:
Mus musculus [1] = experiment: Anticonvulsant activity in Kunming mouse assessed as reduction in Sc3-MP-induced seizure ip dosed measured at 0.5 hrs before Sc3-MP stimulation; format: functional
[2] = Neurotoxicity against ip dosed Kunming mouse assessed as time remained in rod measured at 0.5 hrs by rotarod test; format: toxicity, organism-based; conditions: in vivo
Homo sapiens [3] = species on record: Homo sapiens; experiment: Inhibition of human LDH5 at 0.5 mM using sodium pyruvate as substrate measured for 60 sec for every 5 mins by LC/MS-MS analysis
Mus musculus [4] = experiment: Anticonvulsant activity in Kunming mouse assessed as MES-induced hind limb extension at 100 mg/kg, ip administered 3 hrs before MES stimulation; format: functional, organism-based
Mus musculus [5] = experiment: Anticonvulsant activity in Kunming mouse assessed as reduction in ScPTZ-induced clonic seizure at 100 mg/kg, ip administered 0.5 hrs before ScPTZ stimulation relative to control; format: functional; parameters: scale not given: the % may be the effect or the level left
Mus musculus [6] = experiment: Anticonvulsant activity in Kunming mouse assessed as reduction in Sc3-MP-induced mortality rate at 300 mg/kg, ip administered 0.5 hrs before Sc3-MP stimulation relative to control; format: functional; parameters: scale not given: the % may be the effect or the level left
Mus musculus [7] = experiment: Anticonvulsant activity in Kunming mouse assessed as MES-induced hind limb extension at 100 mg/kg, ip administered 0. 5 to 4 hrs before MES stimulation relative to control; format: functional
[8] = Neurotoxicity against Kunming mouse assessed as time remained in rod at 100 mg/kg, ip administered 0.5 to 2 hrs by rotarod test; format: toxicity, organism-based; conditions: in vivo
Mus musculus [9] = experiment: […] activity in ip dosed Kunming mouse assessed as reduction in formalin-induced paw licking administered 0.5 hrs before formalin stimulation; format: functional
Mus musculus [10] = experiment: Anticonvulsant activity in ip dosed Kunming mouse assessed as reduction in ScPTZ-induced seizure administered 0.5 hrs before ScPTZ stimulation; format: functional
Mus musculus [11] = experiment: Anticonvulsant activity in Kunming mouse assessed as reduction in ScPTZ-induced seizure at 100 mg/kg, ip administered 0.25 to 2 hrs before ScPTZ stimulation relative to control; format: functional
Mus musculus [12] = experiment: Anticonvulsant activity in Kunming mouse assessed as MES-induced hind limb extension at 50 mg/kg, ip administered 0.5 to 4 hrs before MES stimulation relative to control; format: functional
[13] = Protective index, ratio of TD50 for neurotoxicity against ip dosed Kunming mouse assessed as time remained in rod measured at 0.5 hrs by rotarod test to ED50 for anticonvulsant activity in ip dosed Kunming mouse assessed as reduction in Sc3-MP-induced seizure administered 0.5 hrs before Sc3-MP stimulation; format: toxicity, organism-based; conditions: in vivo, read-out: PI
Mus musculus [14] = experiment: Anticonvulsant activity in Kunming mouse assessed as reduction in ScPTZ-induced tonic seizure rate at 100 mg/kg, ip administered 0.5 hrs before ScPTZ stimulation relative to control; format: functional; parameters: scale not given: the % may be the effect or the level left
Mus musculus [15] = experiment: Anticonvulsant activity in Kunming mouse assessed as reduction in ScPTZ-induced clonic seizure at 300 mg/kg, ip administered 0.5 hrs before ScPTZ stimulation relative to control; format: functional; parameters: scale not given: the % may be the effect or the level left
[16] = Protective index, ratio of TD50 for neurotoxicity against ip dosed Kunming mouse assessed as time remained in rod measured at 0.5 hrs by rotarod test to ED50 for […] activity in ip dosed Kunming mouse assessed as reduction in formalin-induced paw licking administered 0.5 hrs before formalin stimulation; format: toxicity, organism-based; conditions: in vivo, read-out: PI
Mus musculus [17] = experiment: Anticonvulsant activity in Kunming mouse assessed as reduction in Sc3-MP-induced clonic seizure rate at 300 mg/kg, ip administered 0.5 hrs before Sc3-MP stimulation relative to control; format: functional; parameters: scale not given: the % may be the effect or the level left
[18] = Protective index, ratio of TD50 for neurotoxicity against ip dosed Kunming mouse assessed as time remained in rod measured at 0.5 hrs by rotarod test to ED50 for anticonvulsant activity in ip dosed Kunming mouse assessed as reduction in ScPTZ-induced seizure administered 0.5 hrs before ScPTZ stimulation; format: toxicity, organism-based; conditions: in vivo, read-out: PI
Mus musculus [19] = experiment: Anticonvulsant activity in Kunming mouse assessed as reduction in ScPTZ-induced seizure at 100 mg/kg, ip administered 0.5 hrs before ScPTZ stimulation relative to control; format: functional; parameters: scale not given: the % may be the effect or the level left
Homo sapiens [20] = species on record: Homo sapiens; experiment: Inhibition of human LDH1 at 0.5 mM using sodium pyruvate as substrate measured for 60 sec for every 5 mins by LC/MS-MS analysis
Mus musculus [21] = experiment: Anticonvulsant activity in Kunming mouse assessed as reduction in ScPTZ-induced seizure at 300 mg/kg, ip administered 0.25 to 2 hrs before ScPTZ stimulation relative to control; format: functional; parameters: scale not given: the % may be the effect or the level left
Mus musculus [22] = experiment: Anticonvulsant activity in Kunming mouse assessed as reduction in Sc3-MP-induced tonic seizure rate at 300 mg/kg, ip administered 0.5 hrs before Sc3-MP stimulation relative to control; format: functional; parameters: scale not given: the % may be the effect or the level left
Mus musculus [23] = experiment: Anticonvulsant activity in Kunming mouse assessed as MES-induced hind limb extension at 100 mg/kg, ip administered 0. 5 to 2 hrs before MES stimulation; format: functional, organism-based
Mus musculus [24] = experiment: Anticonvulsant activity in Kunming mouse assessed as reduction in ScPTZ-induced tonic seizure rate at 300 mg/kg, ip administered 0.5 hrs before ScPTZ stimulation relative to control; format: functional; parameters: scale not given: the % may be the effect or the level left
Mus musculus [25] = experiment: Anticonvulsant activity in ip dosed Kunming mouse assessed as MES-induced hind limb extension administered 0.5 hrs before MES stimulation; format: functional
[26] = Protective index, ratio of TD50 for neurotoxicity against ip dosed Kunming mouse assessed as time remained in rod measured at 0.5 hrs by rotarod test to ED50 for anticonvulsant activity in ip dosed Kunming mouse assessed as MES-induced hind limb extension administered 0.5 hrs; format: toxicity, organism-based; conditions: in vivo, read-out: PI
Mus musculus [27] = experiment: Anticonvulsant activity in Kunming mouse assessed as reduction in ScPTZ-induced seizure at 100 mg/kg, ip administered 0.25 and 1 hrs before ScPTZ stimulation relative to control; format: functional; parameters: scale not given: the % may be the effect or the level left
Homo sapiens [28] = species on record: Homo sapiens; experiment: Inhibition of human LDH5 at 0.5 mM using sodium pyruvate as substrate by UV-VIS spectrophotometry method relative to control
Homo sapiens [29] = species on record: Homo sapiens; experiment: Inhibition of human LDH1 at 0.5 mM using sodium pyruvate as substrate by UV-VIS spectrophotometry method relative to control
Mus musculus [30] = experiment: Anticonvulsant activity in Kunming mouse assessed as MES-induced hind limb extension at 100 mg/kg, ip administered 0. 5 hrs before MES stimulation relative to control; format: functional
Mus musculus [31] = experiment: Anticonvulsant activity in Kunming mouse assessed as MES-induced hind limb extension at 50 mg/kg, ip administered 0.5 and 2 hrs before MES stimulation relative to control; format: functional
Mus musculus [32] = experiment: Anticonvulsant activity in Kunming mouse assessed as reduction in Sc3-MP-induced seizure at 300 mg/kg, ip administered 0.25 and 1 hrs before Sc3-MP stimulation relative to control; format: functional, organism-based
Mus musculus [33] = experiment: Anticonvulsant activity in Kunming mouse assessed as reduction in ScPTZ-induced mortality rate at 300 mg/kg, ip administered 0.5 hrs before ScPTZ stimulation relative to control; format: functional; parameters: scale not given: the % may be the effect or the level left
Mus musculus [34] = experiment: Anticonvulsant activity in Kunming mouse assessed as reduction in Sc3-MP-induced seizure at 300 mg/kg, ip administered 0.5 hrs before Sc3-MP stimulation relative to control; format: functional; parameters: scale not given: the % may be the effect or the level left

SMILES	ED50 (Mus musculus [1])	TD50 at 0.5 h [2]	Activity (Mus musculus [5]) [%]	Activity (Mus musculus [7])	Activity [8]	ED50 (Mus musculus [9])	ED50 (Mus musculus [10])	Activity (Mus musculus [11])	selectivity ratio at 0.5 h [13]	Activity (Mus musculus [14]) [%]	Activity (Mus musculus [15]) [%]	selectivity ratio at 0.5 h [16]	Activity (Mus musculus [17]) [%]	selectivity ratio at 0.5 h [18]	Activity (Mus musculus [21]) [%]	Activity (Mus musculus [22]) [%]	Activity (Mus musculus [23])	Activity (Mus musculus [24]) [%]	ED50 (Mus musculus [25])	selectivity ratio at 0.5 h [26]	further results
COc1cc(OC)c(/C=C/C(=O)OC/C=C/c2cc(OC)c(OC)cc2OC)c(OC)c1	> 300 mg/kg and > 675 µmol/kg	> 2250 µmol/kg and > 1000 mg/kg	100	25 - 100%	Non-Toxic	99 mg/kg and 223 µmol/kg	212 mg/kg and 476 µmol/kg	inactive	3.3	100	100	> 10.1	100	> 4.7	50	75	Active	0	157 µmol/kg and 69.8 mg/kg	> 14.3	inhibition (Homo sapiens [3]): Active; Activity (Mus musculus [4]): Active; Activity (Mus musculus [6]): 25%; Activity (Mus musculus [12]): 50%; Activity (Mus musculus [19]): 100%; inhibition (Homo sapiens [20]): Active
COc1cc(OC)c(OC)cc1/C=C/COC(=O)/C=C/c1ccc(OC)c(OC)c1OC	> 300 mg/kg and > 675 µmol/kg	> 1000 mg/kg and > 2250 µmol/kg	100	25 - 100%	Non-Toxic	78.4 mg/kg and 176 µmol/kg	203 mg/kg and 456 µmol/kg	inactive	3.3	100	100	> 12.8	100	> 4.9	50	75	Active	25	33.4 mg/kg and 75.1 µmol/kg	> 29.9	Activity (Mus musculus [27]): 75%; inhibition (Homo sapiens [28]): 8%; Activity (Mus musculus [12]): 50%; inhibition (Homo sapiens [29]): 7%; Activity (Mus musculus [30]): 100%; Activity (Mus musculus [31]): 50%
COc1cc(OC)c(OC)cc1/C=C/COC(=O)/C=C/c1ccccc1Cl	248 mg/kg and 639 µmol/kg	> 2570 µmol/kg and > 1000 mg/kg	100	25 - 100%	Non-Toxic	101 mg/kg and 260 µmol/kg	150 mg/kg and 385 µmol/kg	inactive	> 4	100	100	> 9.9	100	> 6.7	50	50	Active	25	151 µmol/kg and 58.7 mg/kg	> 17	Activity (Mus musculus [32]): Active; Activity (Mus musculus [33]): 0%; Activity (Mus musculus [4]): Active; Activity (Mus musculus [6]): 0%; Activity (Mus musculus [27]): 75%; Activity (Mus musculus [34]): 50%; inhibition (Homo sapiens [28]): < 9%; Activity (Mus musculus [12]): 50%; inhibition (Homo sapiens [29]): < 5%; Activity (Mus musculus [31]): 75%
COc1cc(OC)c(OC)cc1/C=C/COC(=O)/C=C/c1cccc(Br)c1	215 mg/kg and 497 µmol/kg	> 2310 µmol/kg and > 1000 mg/kg	100	25 - 100%	Non-Toxic	113 mg/kg and 260 µmol/kg	> 200 mg/kg and > 462 µmol/kg	inactive	> 4.6	100	100	> 8.9	100	5	50	50	Active	25	175 µmol/kg and 75.7 mg/kg	> 13.2	Activity (Mus musculus [32]): Active; Activity (Mus musculus [33]): 0%; Activity (Mus musculus [4]): Active; Activity (Mus musculus [6]): 0%; Activity (Mus musculus [27]): 75%; Activity (Mus musculus [34]): 50%; inhibition (Homo sapiens [28]): < 9%; inhibition (Homo sapiens [29]): < 5%; Activity (Mus musculus [31]): inactive
